These are literature values, as cited in US20130226549A1, “STRUCTURE-BASED FRAGMENT HOPPING FOR LEAD OPTIMIZATION AND IMPROVEMENT IN SYNTHETIC ACCESSIBILITY” (priority 2012, published 2013).

The structures appear in SMILES notation. Where two headings read alike, the source gives them in different places.

The IC50 is the midpoint of a concentration-inhibition curve.

The target in this data set is T1, human 5-LOX (Homo sapiens, UniProt P09917).
T1 sequence (P09917 1-674): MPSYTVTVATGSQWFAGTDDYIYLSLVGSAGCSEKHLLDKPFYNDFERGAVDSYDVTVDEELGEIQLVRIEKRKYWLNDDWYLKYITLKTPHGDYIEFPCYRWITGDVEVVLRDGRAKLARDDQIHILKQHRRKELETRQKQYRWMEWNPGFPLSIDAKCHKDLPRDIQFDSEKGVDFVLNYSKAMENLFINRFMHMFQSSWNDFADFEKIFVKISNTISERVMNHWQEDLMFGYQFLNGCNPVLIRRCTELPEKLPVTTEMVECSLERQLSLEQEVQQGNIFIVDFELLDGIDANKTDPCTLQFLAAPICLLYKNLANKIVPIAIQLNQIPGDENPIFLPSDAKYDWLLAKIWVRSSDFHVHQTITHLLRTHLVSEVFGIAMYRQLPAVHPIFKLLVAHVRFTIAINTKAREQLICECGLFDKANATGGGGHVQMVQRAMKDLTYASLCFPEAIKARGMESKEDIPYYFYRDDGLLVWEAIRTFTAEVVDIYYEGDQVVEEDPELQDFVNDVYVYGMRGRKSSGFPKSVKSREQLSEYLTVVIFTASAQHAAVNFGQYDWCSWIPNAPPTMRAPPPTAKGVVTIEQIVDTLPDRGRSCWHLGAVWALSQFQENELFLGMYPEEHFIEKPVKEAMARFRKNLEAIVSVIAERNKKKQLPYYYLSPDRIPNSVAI
Particulars: from the literature.

[1] abbreviates: 5-LOX, LeadOp+R example, read-out: Inhibition IC50.

With `O=c1cc(-c2ccc(F)cc2)c2ccc(CCc3ncc(C(O)(C(F)(F)F)C(F)(F)F)s3)cc2o1` [compound H], the IC50 (human 5-LOX, LeadOp example, read-out: IC50) is 64 nM. With `CCC(O)(c1cnc(Sc2ccc3c(-c4ccc(F)cc4)cc(=O)oc3c2)s1)C(F)(F)F` (stereo not shown) [rB1], the IC50 under setting [1] was 7 ± 2 nM.

As to `O=c1cc(-c2ccc(F)cc2)c2ccc(CCc3ncc(C(O)(C(F)(F)F)C(F)(F)F)s3)cc2o1` [rB3], under setting [1], the IC50 is 64 ± 3 nM.

In the case of `CN(Cc1ccc2c(-c3ccc(F)cc3)cc(=O)oc2c1)c1ncc(C(O)(C(F)(F)F)C(F)(F)F)s1` [rB, reference compound], the IC50 under setting [1] was 145 nM.
